Assay results as given in patent publication US20150306096A1, “8'-HYDROXY-DIHYDROERGOTAMINE COMPOUNDS AND COMPOSITIONS” (MAP Pharmaceuticals, Inc., priority 2012, published 2015).
pIC50: −log10 of the molar value. Where two headings read alike, the source gives them in different places.

Tests used:
[1] = molecular target: T1, human Adrenergic α1D receptor (Homo sapiens, UniProt P25100); assay: Aequorin functional assay (agonist/antagonist); type: cell-based
T1 construct: expressed in transfected cells; host or cells: CHO-K1 or HEK-293, coexpressing mitochondrial apoaequorin
Protocol: (§1) Functional profiling of agonist and antagonist activities of 8′-OH DHE on human Adrenergic α1D, Dopamine D2L, and Serotonin 5-HT1B, 5-HT1D, 5-HT1F, 5-HT3, 5-HT4e and 5-HT5A receptors (compared against the parent (DHE) molecule) was carried out as follows.
(§2) The SPA 35S-GTPγS tests were conducted with Euroscreen membrane preparations […]. The HTRF assays were conducted with recombinant cell lines. The receptor accession numbers, cellular background and reference compounds are as reported below in Table 10.
(§3) (1) DHE and 8′-OH DHE were tested for agonist and antagonist activity at the human Adrenergic α1D, Serotonin 5-HT3 and Serotonin 5-HT5A receptors using aequorin assay (in triplicate) at the following nanomolar concentrations:
(§4) (5) DHE was tested for agonist and antagonist activity at the human Adrenergic α1D, Serotonin 5-HT3 and Serotonin 5-HT5A receptors using aequorin assay (in triplicate), and at the human Dopamine D2L, Serotonin 5-HT1F and Serotonin 5-HT4E receptors using cAMP HTRF assay (in triplicate) at the following nanomolar concentrations:
(§5) (6) 8′-OH DHE was tested for agonist and antagonist activity at the human Adrenergic α1D, Serotonin 5-HT3 and Serotonin 5-HT5A receptors using aequorin assay (in triplicate), at the human Dopamine D2L, Serotonin 5-HT1F and Serotonin 5-HT4E receptors using cAMP HTRF assay (in triplicate), and at the human Serotonin 5-HT1B and Serotonin 5-HT1D receptors using GTPγS assay (in triplicate) at the following nanomolar concentrations:
(§6) CHO-K1 or HEK-293 cells coexpressing mitochondrial apoaequorin and recombinant human […], or recombinant human Serotonin 5-HT3 receptor, or recombinant human Serotonin 5-HT5A receptor grown to mid-log phase in culture media without antibiotics were detached with PBS-EDTA, centrifuged and resuspended in assay buffer (DMEMHAM's F12 with HEPES, without phenol red+0.1% BSA protease free) at a concentration of 1×10^6 cells/mL. Cells were incubated at RT for at least 4 hours with coelenterazine h. The reference agonist was tested to evaluate performance of the assay on each day of the test and to determine EC50. For agonist testing, 50 μL of cell suspension was mixed with 50 μL of test compound or reference agonist in a 96-well plate. The resulting emission of light was recorded using Hamamatsu Functional Drug Screening System 6000 (FDSS 6000 luminometer). For antagonist testing, 100 μL of the reference agonist at its EC80 was injected on the mix of cells and test compounds, following an incubation of 15 minutes after the first injection. The resulting emission of light was recorded using the FDSS 6000 luminometer. To standardize the emission of recorded light (determination of the ‘100% signal’) across plates and across different experiments, some of the wells contained 100 μM digitonin or a saturating concentration of ATP (20 μM).
(§7) Agonist activity of the test compounds was expressed as a percentage of the activity of the reference agonist at its EC100 concentration. Antagonist activity of the test compounds was expressed as a percentage of the inhibition of the reference agonist activity at its EC80 concentration. Dose-response data from the test compounds were analyzed with XLfit (IDBS) software using nonlinear regression applied to a sigmoidal dose-response model and the following equation: […]

[2] = molecular target: T2, human Serotonin 5-HT5A receptor (Homo sapiens, UniProt P47898); assay: Aequorin functional assay (agonist/antagonist); type: cell-based
T2 construct: expressed in transfected cells; host or cells: CHO-K1 or HEK-293, coexpressing mitochondrial apoaequorin
Protocol: as §1, §2, §3, §4, §5, §6, §7

[3] = molecular target: T3, human Serotonin 5-HT3 receptor (Homo sapiens, UniProt P46098); assay: Aequorin functional assay (agonist/antagonist); type: cell-based
T3 construct: expressed in transfected cells; host or cells: CHO-K1 or HEK-293, coexpressing mitochondrial apoaequorin
Protocol: as §1, §2, §3, §4, §5, §6, §7

[4] = molecular target: T4, human Serotonin 5-HT1F receptor (Homo sapiens, UniProt P30939); assay: cAMP HTRF functional assay (agonist/antagonist); type: cell-based
T4 construct: expressed in transfected cells; host or cells: CHO-K1
Protocol: as §1, §2
(4) DHE and 8′-OH DHE were tested for agonist and antagonist activity at the human Serotonin 5-HT1F and Serotonin 5-HT4E receptors using cAMP HTRF assay (in triplicate) at the following nanomolar concentrations: […]
as §7

[5] = cited from earlier work

T3 sequence (P46098 24-478): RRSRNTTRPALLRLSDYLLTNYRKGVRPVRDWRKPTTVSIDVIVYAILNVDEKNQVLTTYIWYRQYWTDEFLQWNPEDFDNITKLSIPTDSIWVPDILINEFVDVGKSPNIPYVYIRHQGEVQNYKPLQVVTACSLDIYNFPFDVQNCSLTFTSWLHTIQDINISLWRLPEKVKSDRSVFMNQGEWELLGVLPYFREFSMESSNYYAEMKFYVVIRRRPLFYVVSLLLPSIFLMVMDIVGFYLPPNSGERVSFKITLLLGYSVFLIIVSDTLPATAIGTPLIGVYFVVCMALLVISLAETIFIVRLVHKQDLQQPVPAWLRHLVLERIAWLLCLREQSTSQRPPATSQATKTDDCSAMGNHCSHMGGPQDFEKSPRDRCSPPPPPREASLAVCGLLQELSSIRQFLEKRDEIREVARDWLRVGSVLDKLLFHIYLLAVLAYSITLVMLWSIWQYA
T4 sequence (P30939 whole entry): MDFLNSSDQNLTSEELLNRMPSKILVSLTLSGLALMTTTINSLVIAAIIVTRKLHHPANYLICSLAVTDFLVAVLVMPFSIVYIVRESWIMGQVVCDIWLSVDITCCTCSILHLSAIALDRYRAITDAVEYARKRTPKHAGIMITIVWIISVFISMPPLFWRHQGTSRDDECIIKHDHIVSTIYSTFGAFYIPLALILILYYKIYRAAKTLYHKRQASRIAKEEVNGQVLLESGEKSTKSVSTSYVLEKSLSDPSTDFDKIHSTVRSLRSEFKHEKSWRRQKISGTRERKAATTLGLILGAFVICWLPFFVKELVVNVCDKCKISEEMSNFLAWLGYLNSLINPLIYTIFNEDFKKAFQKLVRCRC
T1 sequence (P25100 whole entry): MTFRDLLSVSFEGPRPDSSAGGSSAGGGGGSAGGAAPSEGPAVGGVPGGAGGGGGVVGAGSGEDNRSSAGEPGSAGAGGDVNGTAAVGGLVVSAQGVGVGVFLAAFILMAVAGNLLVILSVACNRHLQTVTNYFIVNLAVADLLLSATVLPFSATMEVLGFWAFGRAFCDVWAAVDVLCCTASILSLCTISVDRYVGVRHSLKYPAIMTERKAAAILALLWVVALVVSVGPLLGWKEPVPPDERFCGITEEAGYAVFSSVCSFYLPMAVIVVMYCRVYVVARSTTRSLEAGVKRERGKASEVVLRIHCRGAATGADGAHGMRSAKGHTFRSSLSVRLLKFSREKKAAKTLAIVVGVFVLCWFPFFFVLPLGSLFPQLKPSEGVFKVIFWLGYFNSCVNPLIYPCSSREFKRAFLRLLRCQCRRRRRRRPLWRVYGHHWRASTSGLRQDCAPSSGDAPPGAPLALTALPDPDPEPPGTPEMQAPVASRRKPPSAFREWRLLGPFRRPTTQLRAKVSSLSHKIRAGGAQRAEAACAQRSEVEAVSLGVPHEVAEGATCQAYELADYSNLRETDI
T2 sequence (P47898 whole entry): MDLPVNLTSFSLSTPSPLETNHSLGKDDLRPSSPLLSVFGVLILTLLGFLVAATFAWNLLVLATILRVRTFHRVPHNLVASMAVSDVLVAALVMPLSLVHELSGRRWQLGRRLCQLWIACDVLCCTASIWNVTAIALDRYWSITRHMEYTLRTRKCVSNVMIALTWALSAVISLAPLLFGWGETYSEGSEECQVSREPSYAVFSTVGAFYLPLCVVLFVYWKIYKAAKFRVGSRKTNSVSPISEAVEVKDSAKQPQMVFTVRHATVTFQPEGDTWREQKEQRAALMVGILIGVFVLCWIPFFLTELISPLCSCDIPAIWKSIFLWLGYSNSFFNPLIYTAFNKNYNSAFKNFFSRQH

Row | Structure (SMILES) | pIC50 [1] | pIC50 [2] | pIC50 [3] | Agonist and antagonist activity [4] | serum half-life ([5]; serum) [h] | pIC50 ([1]; Adrenergic α1D, aequorin, vs reference agonist at EC80, read-out: Functional activity (antagonist)) | pIC50 ([2]; Serotonin 5-HT5A, aequorin, read-out: Functional activity (antagonist)) | pIC50 ([3]; Serotonin 5-HT3, aequorin, read-out: Functional activity (antagonist)) | metabolite concentration relative to parent DHE ([5]; previous studies) [times]
1 | CN1C[C@H](C(=O)N[C@]2(C)O[C@@]3(O)[C@@H]4CCCN4C(=O)[C@H](Cc4ccccc4)N3C2=O)C[C@@H]2c3cccc4[nH]cc(c34)C[C@H]21 [DHE, Dihydroergotamine] | 8.88 | 7.31 | 5.41 | inactive | 10 to 13 |  |  |  | 
2 | CN1C[C@H](C(=O)N[C@]2(C)O[C@@]3(O)[C@@H]4CCC(O)N4C(=O)[C@H](Cc4ccccc4)N3C2=O)C[C@@H]2c3cccc4[nH]cc(c34)C[C@H]21 (stereo partly shown) [8′-OH DHE, 8′-Hydroxy-Dihydroergotamine] |  |  |  | inactive |  | 9.21 | 7.13 | < 5.00 | 5 to 7
